This is an account of results in patent US20130101684A1, “Compounds, Compositions, And Methods For Reducing Or Eliminating Bitter Taste” (Chromocell Corporation, priority 2010, published 2013).

Common to all, as to format: in vivo, humans
Experiment [1] deals with bitter taste of an aqueous solution of potassium lactate. The experiment is described as follows: Sip and spit taste test of aqueous potassium lactate test solutions. The following applies: aqueous potassium lactate (KLac) 41 g/L, 1% EtOH, human panel, dash = at none of the tested conc. As for the experimental part:
A set of KCl solutions standards was developed and each standard solution was assigned a bitterness taste score of 0-15 (corresponding to aqueous KCl concentrations of 0 mM-120 mM). Panelists were trained to recognize these standards. In addition, before each day of testing, panelists were tested to see if they could determine differences in taste between the standard solutions, if a panelist was unable to recognize a change in KCl concentration, they were excluded from the panel for that day. In a blind taste test, panelists were asked to compare the bitter taste of a small quantity (e.g. 8 ml) of each of the KCl Test Solutions to the taste of a KCl solution standard, without swallowing (see, e.g., Table 1). Specifically, panelists were asked to rate the bitterness of each KCl Test Solution on a scale of 0-15 using the same scale developed for the KCl solution standards. Each sample was tested in 2-4 discrete taste test experiments. Panelists were asked to rinse with water, eat a cracker, and wait approximately 10 minutes between samples. Edible potassium lactate solution compositions (“potassium lactate test solutions”) were prepared by first dissolving varying amounts of the test compounds in an amount of ethanol or water (depending on the solubility of the compound) to create a 5 mg/mL stock compound solution. An amount of this stock compound solution is then added to an aqueous potassium lactate solution. Enough EtOH is then added to the resulting stock compound/potassium lactate solution so that the final potassium lactate test solution contains 1% EtOH. Potassium lactate solution standards were similarly prepared by dissolving various amounts of potassium lactate in water and ethanol without adding any test compound. […] The effect of the test compounds on the perception of the bitter taste of an aqueous solution of potassium lactate in humans was evaluated using the “sip and spit” test described in Example 2.

The subject of experiment [2] is bitter taste of potassium lactate foodstuffs. Nature of the experiment: Two-alternative forced choice (2AFC) sip and spit test of potassium lactate turkey foodstuff slurries. The following applies: turkey slurry with potassium lactate (KLac) 4.5%, 1% EtOH, 2AFC vs KLac slurry standard, dash = at none of the tested conc.; for minimal effective concentration: Homo sapiens. As for the experimental part: In a blind taste test, panelists received two portions of turkey slurry—one portion being the KCl foodstuff slurry standard and the other being one of the KCl test foodstuff slurries (each prepared as described in Example 5). The panelists tasted each of the portions by sipping and spitting. Each sample was tested in 2-4 discrete taste test experiments. Panelists were asked to rinse with water, eat a cracker, and wait about 10 minutes between samples. In each case, the panelists were asked to compare the bitter taste of the two turkey samples to each other (i.e. panelists were asked to indicate which sample was less bitter). Edible potassium lactate food compositions (“potassium lactate test foodstuff slurries”) were prepared as follows, Dehydrated, salt-free turkey powder was weighed and mixed with various amounts of potassium lactate and/or sodium lactate and then solubilized with boiling water to create a homogenized solubilized turkey slurry. Varying amounts of the test compounds were dissolved in an amount of ethanol or water (depending on the solubility of the compound) to create a 5 mg/mL stock compound solution. An amount of this stock compound solution was then added to the turkey slurry. Enough EtOH is then added to the resulting stock compound/turkey slurry so that the final slurry contains 1% EtOH. The final slurry was again homogenized by boiling and mixing and allowed to cool to yield the final slurry for taste testing. Potassium lactate foodstuff slurry standards were similarly prepared without any test compound. […] The effect of the test compounds on the perception of the bitter taste of potassium lactate foodstuffs in humans was evaluated using the two-alter native-forced-choice “sip and spit” test described in Example 6.

Experiment [3] deals with bitter taste of KCl foodstuff slurries. Nature of the experiment: Two-alternative forced choice (2AFC) sip and spit test of KCl turkey foodstuff slurries. Particulars: turkey slurry with KCl 1.6%, 1% EtOH, 2AFC vs KCl slurry standard, dash = at none of the tested conc.; for minimal effective concentration: Homo sapiens. The protocol:
Edible KCl food compositions (“KCl test foodstuff slurries”) were prepared as follows. Dehydrated, salt-free turkey powder was weighed and mixed with various amounts of KCl and/or NaCl and then solubilized with boiling water to create a homogenized solubilized turkey slurry. Varying amounts of the test compounds were dissolved in an amount of ethanol or water (depending on the solubility of the compound) to create a 5 mg/mL stock compound solution. An amount of this stock compound solution was then added to the turkey slurry. Enough EtOH is then added to the resulting stock compound/turkey slurry so that the slurry contains 1% EtOH. The slurry was again homogenized by boiling and mixing and allowed to cool to yield the final KCl test foodstuff slurry for taste testing. KCl foodstuff slurry standards were similarly prepared without any test compound. […] The effect of the test compounds on the perception of the bitter taste of KCl foodstuff slurries in humans was evaluated using a two-alternative-forced-choice “sip and spit” test as follows. In a blind taste test, panelists received two portions of turkey slurry—one portion being the KCl foodstuff slurry standard and the other being one of the KCl test foodstuff slurries (each prepared as described in Example 5). The panelists tasted each of the portions by sipping and spitting. Each sample was tested in 2-4 discrete taste test experiments. Panelists were asked to rinse with water, eat a cracker, and wait about 10 minutes between samples. In each case, the panelists were asked to compare the bitter taste of the two turkey samples to each other (i.e. panelists were asked to indicate which sample was less bitter).

In experiment [4] the test system is bitter taste of an aqueous solution of KCl. Nature of the experiment: Sip and spit taste test of aqueous KCl test solutions, bitterness rated 0-15 against KCl solution standards. The following applies: aqueous KCl 4.85 g/L, 1% EtOH, human panel, vs KCl solution standard, dash = at none of the tested conc. The protocol:
Edible KCl solution compositions (“KCl test solutions”) were prepared by first dissolving varying amounts of the test compounds in an amount of ethanol or water (depending on the solubility of the compound) to create a 5 mg/mL stock compound solution. An amount of this stock compound solution is then added to an aqueous KCl solution. Enough EtOH is then added to the resulting stock compound/KCl solution so that the final KCl test solution contains 1% EtOH. KCl solution standards were similarly prepared by dissolving various amounts of KCl in water and ethanol without adding any test compound. […] The effect of the test compounds on the perception of the bitter taste of an aqueous solution of KCl in humans was evaluated using a “sip and Spit” test as follows. A set of KCl solutions standards was developed and each standard solution was assigned a bitterness taste score of 0-15 (corresponding to aqueous KCl concentrations of 0 mM-120 mM). Panelists were trained to recognize these standards. In addition, before each day of testing, panelists were tested to see if they could determine differences in taste between the standard solutions, if a panelist was unable to recognize a change in KCl concentration, they were excluded from the panel for that day. In a blind taste test, panelists were asked to compare the bitter taste of a small quantity (e.g. 8 ml) of each of the KCl Test Solutions to the taste of a KCl solution standard, without swallowing (see, e.g., Table 1). Specifically, panelists were asked to rate the bitterness of each KCl Test Solution on a scale of 0-15 using the same scale developed for the KCl solution standards. Each sample was tested in 2-4 discrete taste test experiments. Panelists were asked to rinse with water, eat a cracker, and wait approximately 10 minutes between samples.

The mark [5] stands for this setting: read-out: Conc. Where Decrease in Bitter Taste Discerned and p ≦ 0.1.
Setting [6] is: read-out: Conc. Where Decrease in Bitter Taste Was Discerned.
[7] abbreviates: read-out: Conc. at Which At Least 50% of Panelist Discerned Decrease in Bitter Taste.
[8] abbreviates: read-out: Conc. at Which At Least 50% of Panelist Discerned Decrease in Bitter Taste and p ≦ 0.1.

Like-named read-outs stand apart in the source and are kept apart here.

`CCn1cc(Br)c(C(=O)Nc2ccccc2C(=O)OC)n1` [Compound 25]: the minimal effective concentration was found to be 10 µg/mL in experiment [1] (setting [5]), 10 µg/mL in experiment [1] (setting [6]) and 1 µg/mL in experiment [2] (setting [7]).
In the case of `Cc1ccc(NC(=O)CCOc2ccccc2)cc1Cl` [Compound 53], in experiment [1], the “Conc. Where Decrease in Bitter Taste Discerned and p ≦ 0.1” value was 1 ppm; the “Conc. Where Decrease in Bitter Taste Was Discerned” value was found to be 1 ppm. For the same compound, in experiment [3], the “Conc. at Which At Least 50% of Panelist Discerned Decrease in Bitter Taste” value is recorded as 30 ppm; the “Conc. at Which At Least 50% of Panelist Discerned Decrease in Bitter Taste and p ≦ 0.1” value was determined as 30 ppm. In experiment [4], the “Conc. Where Decrease in Bitter Taste Discerned and p ≦ 0.1” value is 25 ppm; the “Conc. Where Decrease in Bitter Taste Was Discerned” value is given as 25 ppm. Also, in experiment [2], the “Conc. at Which At Least 50% of Panelist Discerned Decrease in Bitter Taste” value amounted to 30 ppm.
`CCC(=O)Nc1ccc(OC)c(Cl)c1` [Compound 51]: the minimal effective concentration was found to be 15 µg/mL in experiment [4] (setting [5]), 15 µg/mL in experiment [4] (setting [6]) and 10 µg/mL in experiment [2] (setting [7]).
With `O=C(O)c1cccc2c1NC(c1cccc(Br)c1)C1CC=CC21` (stereo not drawn) [Compound 37], the minimal effective concentration in experiment [4] (setting [5]) is 1 µg/mL; in experiment [4] (setting [6]), 1 µg/mL; in experiment [2] (setting [8]) it was 10 µg/mL.
With `CCn1ncc(Br)c1C(=O)Nc1ccccc1C(=O)OC` [Compound 23], in experiment [4], the “Conc. Where Decrease in Bitter Taste Discerned and p ≦ 0.1” value worked out at 40 ppm; the “Conc. Where Decrease in Bitter Taste Was Discerned” value was found to be 40 ppm. Besides, in experiment [2], the “Conc. at Which At Least 50% of Panelist Discerned Decrease in Bitter Taste and p ≦ 0.1” value worked out at 1 ppm.
Take `COC(=O)c1cccc2c1NC(c1ccc(Cl)cc1Cl)C1CC=CC21` (stereo not drawn) [Compound 38]: the minimal effective concentration in experiment [4] (setting [5]) worked out at 1 µg/mL; in experiment [4] (setting [6]), 1 µg/mL; in experiment [2] (setting [7]) it was 30 µg/mL.
Regarding `Cc1ccc(NC(=O)C2COc3ccccc3O2)cc1Cl` (stereo not drawn) [Compound 56], the “Conc. Where Decrease in Bitter Taste Discerned and p ≦ 0.1” value in experiment [1] turned out to be 10 ppm. Further, the “Conc. Where Decrease in Bitter Taste Discerned and p ≦ 0.1” value in experiment [4] is listed as 1 ppm. Moreover, in experiment [2], the “Conc. at Which At Least 50% of Panelist Discerned Decrease in Bitter Taste” value amounted to 1 ppm; the “Conc. at Which At Least 50% of Panelist Discerned Decrease in Bitter Taste and p ≦ 0.1” value is listed as 1 ppm.
On to `COC(=O)c1ccccc1NC(=O)c1c(I)cnn1C` [Compound 24], for which the values for the minimal effective concentration in experiment [3] (setting [8]) and in experiment [2] (setting [8]) were 10 µg/mL and 30 µg/mL, respectively.
On to `CCCC(=O)Nc1ccc(OC)c(Cl)c1` [Compound 49], for which the minimal effective concentration in experiment [1] (setting [5]) is 30 µg/mL; in experiment [1] (setting [6]), 30 µg/mL; in experiment [3] (setting [7]), 1 µg/mL; in experiment [3] (setting [8]), 1 µg/mL; in experiment [4] (setting [5]), 30 µg/mL; in experiment [4] (setting [6]) it was 30 µg/mL. The minimal effective concentration in experiment [2] (setting [7]) and in experiment [2] (setting [8]) was 30 µg/mL each time.
In the case of `CCOC(=O)c1ccccc1NC(=O)c1c(Cl)cnn1C` [Compound 26], the minimal effective concentration in experiment [1] (setting [5]) amounted to 1 µg/mL; in experiment [3] (setting [8]), 1 µg/mL; in experiment [2] (setting [7]), 30 µg/mL.
